Reference: patent US11331299B2, “Medicinal use of serrulatane diterpenes” (The University of Sydney, priority 2016, dated 2022)
Read-outs that look alike come from different tables or passages of the source.

System: 280 human cancer cell lines
Test: OncoPanel cell proliferation assay (10-day)
Assay type: cell-based
Conditions: Homo sapiens; for EC50: read-out: Cell Count EC50; for GI50: read-out: Cell Count GI50; for IC50: read-out: Cell Count IC50
[1] = NCI-H292, NCI-H292, Lung - NSCLC
[2] = NCI-H295R, Endocrine - Adrenal gland
[3] = NCI-H441, NCIH441, Lung - NSCLC
[4] = NCI-H460, NCI-H460, Lung - NSCLC
[5] = NCI-H520, NCI-H520, Lung - NSCLC
[6] = NCI-H596, NCI-H596, Lung - NSCLC
[7] = NCI-H661, NCI-H661, Lung - NSCLC
[8] = NTERA-2-cl-D1, NTERA-2 cl.D1, Testis
[9] = OVCAR-3, OVCAR3, Female GU - Ovary
[10] = RPMI-7951, RPMI-7951, Skin (Melanoma)
[11] = SAOS-2, SaOS2, Soft Tissue - Osteosarcoma

`CC(C)=CCC[C@H](C)[C@@H]1CC[C@@H](C)c2c1cc(C)c(O)c2O` [Compound 4, 7,8-dihydroxyserrulat-14-ene] was tested. Which EC50 [1] did it give?
Its EC50 is 9.21 µM.

And the GI50 [1]?
The GI50 was 9.19 µM.

And the IC50 [1]?
The IC50 was 9.21 µM.

What about the EC50 [2] of the same molecule?
The EC50 was 25.6 µM.

What about the GI50 [2] of the same molecule?
The GI50 was 21.6 µM.

What about the IC50 [2] of the same molecule?
The IC50 was 25.6 µM.

What about the EC50 [3] of the same molecule?
The EC50 was 4.76 µM.

And the GI50 [3]?
Its GI50 is greater than 30 µM.

What about the IC50 [3] of the same molecule?
Its IC50 is greater than 30 µM.

What about the EC50 (NCI-H446, NCIH446, Lung - SCLC) of the same molecule?
Its EC50 is 7.81 µM.

And the GI50 (NCI-H446, NCIH446, Lung - SCLC)?
The GI50 was 7.62 µM.

What about the IC50 (NCI-H446, NCIH446, Lung - SCLC) of the same molecule?
Its IC50 is 7.81 µM.

And the EC50 [4]?
Its EC50 is 12.2 µM.

And the GI50 [4]?
The GI50 was 13 µM.

And the IC50 [4]?
The IC50 was 13 µM.

And the EC50 (NCI-H508, NCI-H508, Colon)?
The EC50 was greater than 30 µM.

And the GI50 (NCI-H508, NCI-H508, Colon)?
The GI50 was greater than 30 µM.

And the IC50 (NCI-H508, NCI-H508, Colon)?
Its IC50 is greater than 30 µM.

And the EC50 [5]?
Its EC50 is 20.8 µM.

What about the GI50 [5] of the same molecule?
The GI50 was 20.6 µM.

What about the IC50 [5] of the same molecule?
Its IC50 is 20.8 µM.

What about the EC50 [6] of the same molecule?
The EC50 was 28.2 µM.

What about the GI50 [6] of the same molecule?
Its GI50 is greater than 30 µM.

What about the IC50 [6] of the same molecule?
The IC50 was greater than 30 µM.

What about the EC50 [7] of the same molecule?
The EC50 was 5.94 µM.

What about the GI50 [7] of the same molecule?
The GI50 was 5.86 µM.

What about the IC50 [7] of the same molecule?
Its IC50 is 5.94 µM.

What about the EC50 (NCI-H747, NCI-H747, Colon) of the same molecule?
The EC50 was 28.1 µM.

And the GI50 (NCI-H747, NCI-H747, Colon)?
Its GI50 is 28.1 µM.

What about the IC50 (NCI-H747, NCI-H747, Colon) of the same molecule?
The IC50 was 28.2 µM.

And the EC50 [8]?
Its EC50 is 7.41 µM.

And the GI50 [8]?
The GI50 was 7.39 µM.

And the IC50 [8]?
Its IC50 is 7.41 µM.

What about the EC50 (OCUG-1, OCUG-1, Liver) of the same molecule?
The EC50 was 15.6 µM.

And the GI50 (OCUG-1, OCUG-1, Liver)?
Its GI50 is 15.5 µM.

And the IC50 (OCUG-1, OCUG-1, Liver)?
The IC50 was 15.6 µM.

And the EC50 (OE19, OE19, Head and Neck)?
Its EC50 is 20.7 µM.

And the GI50 (OE19, OE19, Head and Neck)?
Its GI50 is 20.5 µM.

What about the IC50 (OE19, OE19, Head and Neck) of the same molecule?
The IC50 was 20.7 µM.

What about the EC50 (OE21, OE21, Head and Neck) of the same molecule?
Its EC50 is 12.7 µM.

And the GI50 (OE21, OE21, Head and Neck)?
Its GI50 is 12.7 µM.

And the IC50 (OE21, OE21, Head and Neck)?
The IC50 was 12.7 µM.

And the EC50 [9]?
Its EC50 is 15.6 µM.

And the GI50 [9]?
The GI50 was 14.9 µM.

And the IC50 [9]?
The IC50 was 15.6 µM.

What about the EC50 (PA-1, Female GU - Ovary) of the same molecule?
Its EC50 is 7.89 µM.

What about the GI50 (PA-1, Female GU - Ovary) of the same molecule?
Its GI50 is 7.89 µM.

What about the IC50 (PA-1, Female GU - Ovary) of the same molecule?
The IC50 was 7.9 µM.

And the EC50 (PANC-1, PANC-1, Pancreas)?
The EC50 was 11.7 µM.

And the GI50 (PANC-1, PANC-1, Pancreas)?
The GI50 was 11.6 µM.

What about the IC50 (PANC-1, PANC-1, Pancreas) of the same molecule?
Its IC50 is 11.7 µM.

What about the EC50 (PC-3, Prostate) of the same molecule?
Its EC50 is 7.71 µM.

And the GI50 (PC-3, Prostate)?
Its GI50 is 7.64 µM.

What about the IC50 (PC-3, Prostate) of the same molecule?
The IC50 was 7.71 µM.

And the EC50 (PFSK-1, PFSK-1, CNS - Glioma)?
Its EC50 is 3.82 µM.

And the GI50 (PFSK-1, PFSK-1, CNS - Glioma)?
The GI50 was 3.8 µM.

And the IC50 (PFSK-1, PFSK-1, CNS - Glioma)?
The IC50 was 3.82 µM.

What about the EC50 (PSN1, PSN-1, Pancreas) of the same molecule?
The EC50 was 5.04 µM.

What about the GI50 (PSN1, PSN-1, Pancreas) of the same molecule?
The GI50 was 5.04 µM.

What about the IC50 (PSN1, PSN-1, Pancreas) of the same molecule?
The IC50 was 5.04 µM.

And the EC50 (RD, Soft Tissue - Sarcoma)?
Its EC50 is 5.19 µM.

And the GI50 (RD, Soft Tissue - Sarcoma)?
The GI50 was 5.17 µM.

And the IC50 (RD, Soft Tissue - Sarcoma)?
The IC50 was 5.19 µM.

What about the EC50 (RKO, Colon) of the same molecule?
Its EC50 is 12 µM.

What about the GI50 (RKO, Colon) of the same molecule?
Its GI50 is 12 µM.

And the IC50 (RKO, Colon)?
Its IC50 is 12 µM.

What about the EC50 (RKOE6, RKOE6, Colon) of the same molecule?
Its EC50 is 6.79 µM.

And the GI50 (RKOE6, RKOE6, Colon)?
The GI50 was 6.76 µM.

What about the IC50 (RKOE6, RKOE6, Colon) of the same molecule?
The IC50 was 6.79 µM.

And the EC50 (RPMI-6666, RPMI 6666, Lymphoma)?
Its EC50 is 23.1 µM.

What about the GI50 (RPMI-6666, RPMI 6666, Lymphoma) of the same molecule?
Its GI50 is 23 µM.

What about the IC50 (RPMI-6666, RPMI 6666, Lymphoma) of the same molecule?
The IC50 was 23.1 µM.

What about the EC50 [10] of the same molecule?
Its EC50 is 9.98 µM.

What about the GI50 [10] of the same molecule?
The GI50 was 9.96 µM.

What about the IC50 [10] of the same molecule?
The IC50 was 9.98 µM.

What about the EC50 (RPMI-8226, RPMI 8226, Myeloma) of the same molecule?
Its EC50 is 3.03 µM.

And the GI50 (RPMI-8226, RPMI 8226, Myeloma)?
Its GI50 is 3.03 µM.

And the IC50 (RPMI-8226, RPMI 8226, Myeloma)?
Its IC50 is 3.04 µM.

What about the EC50 (RS4-11, RS4, 11, Leukemia) of the same molecule?
Its EC50 is 4.15 µM.

And the GI50 (RS4-11, RS4, 11, Leukemia)?
The GI50 was 4.16 µM.

And the IC50 (RS4-11, RS4, 11, Leukemia)?
Its IC50 is 4.23 µM.

What about the EC50 (Raji, Lymphoma) of the same molecule?
The EC50 was 3.92 µM.

What about the GI50 (Raji, Lymphoma) of the same molecule?
Its GI50 is 3.92 µM.

And the IC50 (Raji, Lymphoma)?
Its IC50 is 3.92 µM.

And the EC50 (Ramos, Ramos (RA 1), Lymphoma)?
The EC50 was 4.17 µM.

What about the GI50 (Ramos, Ramos (RA 1), Lymphoma) of the same molecule?
The GI50 was 4.17 µM.

What about the IC50 (Ramos, Ramos (RA 1), Lymphoma) of the same molecule?
The IC50 was 4.17 µM.

What about the EC50 [11] of the same molecule?
Its EC50 is 10.6 µM.

What about the GI50 [11] of the same molecule?
The GI50 was 10.7 µM.

And the IC50 [11]?
The IC50 was 10.7 µM.

And the EC50 (SCC-4, SCC-4, Head and Neck)?
Its EC50 is 15.8 µM.

What about the GI50 (SCC-4, SCC-4, Head and Neck) of the same molecule?
The GI50 was 15.5 µM.

And the IC50 (SCC-4, SCC-4, Head and Neck)?
The IC50 was 15.8 µM.

What about the EC50 (SCC-9, SCC-9, Head and Neck) of the same molecule?
The EC50 was 16.5 µM.

What about the GI50 (SCC-9, SCC-9, Head and Neck) of the same molecule?
Its GI50 is 16.4 µM.

And the IC50 (SCC-9, SCC-9, Head and Neck)?
Its IC50 is 16.5 µM.

What about the EC50 (SCC-25, SCC-25, Head and Neck) of the same molecule?
Its EC50 is 25 µM.

And the GI50 (SCC-25, SCC-25, Head and Neck)?
Its GI50 is 25 µM.

And the IC50 (SCC-25, SCC-25, Head and Neck)?
Its IC50 is 25 µM.

And the EC50 (SCaBER, Bladder)?
The EC50 was 16.9 µM.

What about the GI50 (SCaBER, Bladder) of the same molecule?
The GI50 was 16.8 µM.
